The source of these data is ChEMBL document CHEMBL4393728, “1-Phenyl-dihydrobenzoindazoles as novel colchicine site inhibitors: Structural basis and antitumor efficacy” (Eur J Med Chem, 2019).

The test system of data set [1] is COLO 205. Briefly: Antiproliferative activity against human COLO205 cells assessed as reduction in cell viability incubated for 72 hrs by MTT assay. In kind it is functional, cell-based. The following applies: COLO 205, 72 h.
In a further data set the target is Tubulin (Bos taurus, UniProt Q6B856+Q862L2+Q862F3). As to the kind of experiment: Inhibition of bovine brain tubulin polymerization measured every 1 min for 60 mins by turbidimetric assay.
For data set [2], the system named is HCT-116. Briefly: Antiproliferative activity against human HCT116 cells assessed as reduction in cell viability incubated for 72 hrs by MTT assay. In kind it is functional, cell-based. The settings on record: HCT-116, 72 h. (In general: Tetrazolium dyes change colour on reduction, which living cells bring about.)
In data set [3] the test system is COLO 205. Briefly: Antitumor activity against human COLO205 cells xenografted in BALB/c mouse assessed as reduction in tumor growth at 20 mg/kg, iv via tail once every 4 days for 16 days. It counts as functional, organism-based.
For data set [4], the system named is HCT-116. As to the kind of experiment: Antitumor activity against human HCT116 cells xenografted in BALB/c mouse assessed as reduction in tumor growth at 20 mg/kg, iv via tail once every 4 days for 16 days. It counts as functional, organism-based. (In general: Xenograft models place foreign cells or tissue in a host animal.)
The nature of data set [5]: Toxicity in BALB/c mouse xenografted with COLO205 cells assessed as reduction in body weight at 20 mg/kg, iv via tail once every 4 days for 16 days. It counts as organism-based. The settings on record: in vivo.
Data set [6] can be described thus: Toxicity in BALB/c mouse xenografted with HCT116 cells assessed as reduction in body weight at 20 mg/kg, iv via tail once every 4 days for 16 days. In kind it is organism-based. The following applies: in vivo.
The nature of data set [7]: Solubility of compound in normal saline. In kind it is physicochemical.

The structures appear in SMILES notation. Converted amounts (≈) assume the structure as drawn. The source made the active and inactive calls. The rule behind the calls is not given here. Some results are limits rather than exact numbers.

For the molecule `COc1ccc(-c2c3c(nn2C)CCc2c-3cc(OC)c(OC)c2OC)cc1F`, the IC50 with COLO 205 [1] is 1230 nM; against Tubulin it was above 10000 nM.

With `COc1ccc(-c2c3c(nn2C)CCc2c-3cc(OC)c(OC)c2OC)cc1`, the IC50 is 3350 nM with COLO 205 [1] and above 10000 nM at Tubulin.

Consider `COc1ccc(-c2[nH]nc3c2-c2cc(OC)c(OC)c(OC)c2CC3)cc1[N+](=O)[O-]`, for which the IC50 was 300 nM with COLO 205 [1] and above 10000 nM against Tubulin.

As for `COc1ccc(-c2[nH]nc3c2-c2cc(OC)c(OC)c(OC)c2CC3)cc1NC(=O)[C@@H](N)CO.Cl`, the IC50 with COLO 205 [1] was 2110 nM; in the data set on HCT-116 [2], 1940 nM; at Tubulin, above 10000 nM. Moreover, the result in the data set with COLO 205 [3] and in the data set on HCT-116 [4] was Active. In addition, the Activity result in data set [5] and in data set [6] was “Non-Toxic” throughout.

Regarding `COc1ccc(/C=C2\c3cc(OC)c(OC)c(OC)c3CC[C@@H]2O)cc1`, the IC50 was 8150 nM in the data set on COLO 205 [1] and above 10000 nM at Tubulin.

Consider `COc1ccc(/C=C\c2cc(OC)c(OC)c(OC)c2)cc1O` [COMBRETASTATIN A4], for which, in the data set on HCT-116 [2], the IC50 amounted to 1 nM.

With `COc1ccc(/C=C2\c3cc(OC)c(OC)c(OC)c3CC[C@H]2O)cc1`, the concentration for half-maximal inhibition (IC50) with COLO 205 [1] was 2970 nM; against Tubulin, above 10000 nM.

Consider `COc1ccc(-c2c3c(nn2CCO)CCc2c-3cc(OC)c(OC)c2OC)cc1F`, for which the IC50 is 2910 nM with COLO 205 [1] and above 10000 nM against Tubulin.

As to `COc1ccc(-c2[nH]nc3c2-c2cc(OC)c(OC)c(OC)c2CC3)cc1N`, the IC50 with COLO 205 [1] worked out at 1 nM; in the data set on HCT-116 [2], 1 nM; on Tubulin, 1600 nM. This molecule gave a solubility in data set [7] of 1000 µg/mL (≈ 2620 µM).

In the case of `COc1ccc(-c2[nH]nc3c2-c2cc(OC)c(OC)c(OC)c2CC3)cc1F`, the IC50 with COLO 205 [1] was 2 nM; against Tubulin, 9200 nM.

For `COc1ccc(-c2c3c(nn2-c2ccccc2)CCc2c-3cc(OC)c(OC)c2OC)cc1F`, the IC50 in the data set on COLO 205 [1] and on Tubulin was above 10000 nM each time.

The IC50 is the concentration needed to halve the response being measured. For orientation: solubility means how much of the substance goes into solution per volume.
